Experimental data taken from patent publication US10611774B2, “Salt form of DPPIV inhibitor and preparation method thereof” (SHANGHAI INSTITUTE OF MATERIA MEDICA, CHINESE ACADEMY OF …, priority 2016, dated 2020).

Assays:
[1] = Hygroscopicity analysis (DVS); format: physicochemical; details: for hygroscopicity (DVS): 25° C.; for water absorbed: at 80% RH; for humidity variation range: conventional storage humidity range
Description: Dynamic vapor absorption (DVS) test/water absorption test rapidly measures the increase and loss of the moisture in the sample caused by flow carrier gas with set relative humidity (RH), wherein the sample is placed on a digital microbalance with high sensitivity and high stability at a self-suspension state, and then the adsorption/desorption of water vapor is measured by measuring the increase/decrease of mass of the material, thereby determining the hygroscopicity of the sample.
In the present invention, the test parameters of the DVS are as follows: Instrument type: SMS DVS Intrinsic; Non-hydrate: 0 to 95%-0% RH; Temperature: 25° C.; Hydrate: 40 to 95%-0% RH; Temperature: 25° C.

[2] = Pharmacokinetics in rats; format: in vivo
[3] = system: db/db mice; test: Fasting blood glucose of gene-deficient db/db mice, chronic administration; format: in vivo
[4] = molecular target: T1, DPP IV (Mus musculus, UniProt P28843); test: Inhibition of DPP IV activity in normal mice plasma; format: in vivo
T1 construct: from tissue; host or cells: plasma of normal mice

[5] = system: rats; test: Subacute toxicity experiment of rats; format: in vivo; details: 150 mg/kg orally administrated group
[6] = system: ICR mice; test: Acute toxicity test of ICR mice; format: in vivo; details: 300 mg/kg administration group
[7] = system: normal ICR mice; test: Oral glucose tolerance of normal ICR mice; format: in vivo
[8] = Pharmacokinetics in dogs; format: in vivo
[9] = molecular target: T2, DPP IV (Rattus norvegicus, UniProt P14740); test: Inhibition of DPP IV activity in normal rat plasma; format: in vivo
T2 construct: from tissue; host or cells: plasma of normal rats

[10] = system: ob/ob mice; test: Fasting blood glucose of ob/ob mice, chronic administration; format: in vivo
[11] = molecular target: DPP IV (Homo sapiens, UniProt P27487); test: DPP IV inhibitory activity and selectivity in vitro; format: biochemical
[12] = versus sitagliptin and vildagliptin

Chain of DPP IV (Homo sapiens, UniProt P27487) (P27487 whole entry, species assumed): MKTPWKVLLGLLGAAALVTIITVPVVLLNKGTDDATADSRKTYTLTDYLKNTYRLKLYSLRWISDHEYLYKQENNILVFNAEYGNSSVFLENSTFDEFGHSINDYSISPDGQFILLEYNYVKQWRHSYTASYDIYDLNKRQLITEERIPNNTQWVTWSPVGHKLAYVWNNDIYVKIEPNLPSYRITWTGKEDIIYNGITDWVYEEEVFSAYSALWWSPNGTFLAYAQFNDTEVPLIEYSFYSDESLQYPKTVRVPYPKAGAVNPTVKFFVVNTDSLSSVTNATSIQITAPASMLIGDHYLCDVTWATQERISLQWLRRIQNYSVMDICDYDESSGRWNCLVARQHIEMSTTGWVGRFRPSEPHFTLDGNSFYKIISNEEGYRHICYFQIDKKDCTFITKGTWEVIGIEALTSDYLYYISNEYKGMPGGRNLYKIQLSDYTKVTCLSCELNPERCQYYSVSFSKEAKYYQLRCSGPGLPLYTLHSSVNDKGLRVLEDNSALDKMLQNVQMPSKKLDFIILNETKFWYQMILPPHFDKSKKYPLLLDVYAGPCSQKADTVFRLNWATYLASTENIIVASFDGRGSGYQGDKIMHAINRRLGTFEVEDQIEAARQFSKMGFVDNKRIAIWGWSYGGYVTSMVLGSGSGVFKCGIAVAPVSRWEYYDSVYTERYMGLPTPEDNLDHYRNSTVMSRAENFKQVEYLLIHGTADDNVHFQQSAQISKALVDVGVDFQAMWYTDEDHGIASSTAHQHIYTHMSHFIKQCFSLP
T1 sequence (P28843 37-760 limits assumed): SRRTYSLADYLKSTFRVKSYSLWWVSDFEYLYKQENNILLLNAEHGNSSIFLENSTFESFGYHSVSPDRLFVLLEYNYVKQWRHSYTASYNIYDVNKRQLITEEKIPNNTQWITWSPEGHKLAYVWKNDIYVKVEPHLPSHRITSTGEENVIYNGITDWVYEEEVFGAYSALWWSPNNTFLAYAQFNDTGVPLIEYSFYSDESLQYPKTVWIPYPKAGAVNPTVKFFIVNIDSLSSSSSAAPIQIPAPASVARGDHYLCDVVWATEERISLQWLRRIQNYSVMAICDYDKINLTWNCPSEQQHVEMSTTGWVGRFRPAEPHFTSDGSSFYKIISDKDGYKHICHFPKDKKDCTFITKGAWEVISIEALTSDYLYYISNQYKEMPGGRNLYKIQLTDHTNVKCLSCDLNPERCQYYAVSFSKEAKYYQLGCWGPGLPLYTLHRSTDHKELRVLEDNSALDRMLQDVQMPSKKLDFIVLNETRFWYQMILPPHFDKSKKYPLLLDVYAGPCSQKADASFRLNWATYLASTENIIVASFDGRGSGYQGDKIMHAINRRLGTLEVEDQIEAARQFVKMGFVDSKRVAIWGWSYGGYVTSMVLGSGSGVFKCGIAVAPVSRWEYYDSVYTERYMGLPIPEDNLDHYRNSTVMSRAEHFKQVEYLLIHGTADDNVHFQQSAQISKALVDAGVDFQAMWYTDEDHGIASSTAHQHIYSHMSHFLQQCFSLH
T2 sequence (P14740 37-767 limits assumed): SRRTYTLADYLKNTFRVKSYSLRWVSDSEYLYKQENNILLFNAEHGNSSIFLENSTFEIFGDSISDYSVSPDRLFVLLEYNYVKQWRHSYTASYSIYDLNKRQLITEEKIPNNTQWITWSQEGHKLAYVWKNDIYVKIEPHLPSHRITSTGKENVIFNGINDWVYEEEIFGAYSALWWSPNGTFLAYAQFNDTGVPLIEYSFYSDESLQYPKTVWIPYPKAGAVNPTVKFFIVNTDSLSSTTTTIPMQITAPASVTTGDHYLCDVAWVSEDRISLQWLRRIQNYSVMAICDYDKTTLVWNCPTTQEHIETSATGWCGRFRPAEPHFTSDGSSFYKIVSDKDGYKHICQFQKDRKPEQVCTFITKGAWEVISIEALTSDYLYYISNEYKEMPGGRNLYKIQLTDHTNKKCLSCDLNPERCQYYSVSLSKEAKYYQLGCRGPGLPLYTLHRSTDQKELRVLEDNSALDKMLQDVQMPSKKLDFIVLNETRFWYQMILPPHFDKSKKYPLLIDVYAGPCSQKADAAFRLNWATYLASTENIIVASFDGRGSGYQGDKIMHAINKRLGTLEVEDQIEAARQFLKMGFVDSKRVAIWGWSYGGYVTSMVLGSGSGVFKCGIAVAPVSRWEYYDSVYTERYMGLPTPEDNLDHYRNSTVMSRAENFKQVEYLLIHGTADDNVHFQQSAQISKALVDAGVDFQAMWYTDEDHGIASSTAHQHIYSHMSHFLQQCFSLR

COC(=O)c1cc2nc(N3CCC[C@@H](N)C3)n(Cc3ccccc3C#N)c(=O)c2s1.Cl [hydrochloride, hydrochloride of (R)-methyl-2-(3-aminopiperidin-1-yl)-3-(2-cyanobenzyl)-4-carbonyl-3,4-dihydrothiophene [3,2-d] pyrimidine-6-carboxylic acid]
hygroscopicity (DVS) [1]: slightly hygroscopic
water absorbed [1]: 2.54%
humidity variation range [1]: less than 3.0%

COC(=O)c1cc2nc(N3CCC[C@@H](N)C3)n(Cc3ccccc3C#N)c(=O)c2s1 [compound of formula I, (R)-methyl-2-(3-aminopiperidin-1-yl)-3-(2-cyanobenzyl)-4-carbonyl-3,4-dihydrothiophene[3,2-d]pyrimidine-6-carboxylic acid]
AUC0-t compared with alogliptin [2]: superior to those of the marketed drug alogliptin
half-life compared with alogliptin [2]: superior to those of the marketed drug alogliptin
effect on fasting blood glucose [3]: reduce its fasting blood glucose
fasting blood glucose effect compared with positive control alogliptin [3]: comparable to the positive control drug alogliptin
DPP IV inhibitory activity in animals compared with alogliptin [4]: superior to the marketed drug alogliptin
inhibition of DPP IV activity in plasma [4]: effective in inhibiting DPP IV activity
subacute toxicity [5]: no obvious toxicity reaction
acute toxicity, animal death [6]: no animal died
effect on oral glucose tolerance [7]: increase the oral glucose tolerance of normal ICR mice in a dose-dependent manner
onset dose, oral glucose tolerance [7]: 0.1 mg/kg
oral glucose tolerance effect compared with alogliptin [7]: better than alogliptin
AUC0-t compared with alogliptin [8]: superior to those of the marketed drug alogliptin
half-life compared with alogliptin [8]: superior to those of the marketed drug alogliptin
DPP IV inhibitory activity in animals compared with alogliptin [9]: superior to the marketed drug alogliptin
inhibition of DPP IV activity in plasma [9]: effective in inhibiting DPP IV activity
effect on fasting blood glucose [10]: effectively decrease fasting blood glucose
fasting blood glucose effect compared with positive control alogliptin [10]: superior to the positive control drug alogliptin
DPP IV inhibitory activity ([11]; in vitro): up to nanomolar level
DPP IV inhibitory activity in vitro compared with marketed drugs [11, 12]: superior to the marketed drugs, sitagliptin and vildagliptin
selectivity in vitro compared with marketed drugs [11, 12]: superior to the marketed drugs, sitagliptin and vildagliptin

COC(=O)c1cc2nc(N3CCC[C@@H](N)C3)n(Cc3ccccc3C#N)c(=O)c2s1.O=P(O)(O)O [phosphate, phosphate of (R)-methyl-2-(3-aminopiperidin-1-yl)-3-(2-cyanobenzyl)-4-carbonyl-3,4-dihydrothiophene[3,2-d]pyrimidine-6-carboxylic acid]
hygroscopicity (DVS) [1]: slightly hygroscopic
humidity variation range [1]: small

COC(=O)c1cc2nc(N3CCC[C@@H](N)C3)n(Cc3ccccc3C#N)c(=O)c2s1.O=C(O)/C=C\C(=O)O [maleate, maleate of (R)-methyl-2-(3-aminopiperidin-1-yl)-3-(2-cyanobenzyl)-4-carbonyl-3,4-dihydrothiophene[3,2-d]pyrimidine-6-carboxylic acid]
hygroscopicity (DVS) [1]: slightly hygroscopicity
water absorbed [1]: 1.57%
humidity variation range [1]: less than 2.0%

glycolate of (R)-methyl-2-(3-aminopiperidin-1-yl)-3-(2-cyanobenzyl)-4-carbonyl-3,4-dihydrothiophene[3,2-d]pyrimidine-6-carboxylic acid
hygroscopicity (DVS) [1]: slightly hygroscopic
water absorbed [1]: 1.23%
humidity variation range [1]: less than 2.0%
